Square brackets hold non-standard residues; d marks the D form. Peptide text beside a SMILES is read from it.
Key:
C. elegans = conditions: in vivo; cited from earlier work
BACE = target: T1, BACE (Homo sapiens, UniProt P56817); experiment: BACE1 Inhibitor Screening Kit in vitro; type: biochemical; conditions: BACE1 Inhibitor Screening Kit ab283408, 60 min at 37 °C, fluorescence Ex/Em 345/500 nm; read-out: IC50 for inhibition of BACE activity in vitro
T1 construct: purchased Abcam ab283408
Experimental: The ability of Aβ1-6A2V(D) to inhibit BACE activity was measured in vitro as described in the BACE1 Inhibitor Screening Kit ab283408 (Abcam, Cambridge, UK). Increasing concentrations of Aβ1-6A2V(D) were employed. Fluorescence was read for 60 min at 37°C at Ex/Em= 345/500 nm using a spectrophotometer (Infinite M200, Tecan, Männedorf, Switzerland). BACE activity was measured in the ipsilateral cortex of 3xTg-AD TBI mice treated with or without the peptide using the β-Secretase Activity Fluorometric Assay Kit MAK237 (Sigma Aldrich, St. Louis, USA). The protein concentration of the samples was analyzed using the BCA assay, as previously described. The samples were diluted to obtain a final concentration of 25 µg proteins/50 µL and then processed according to the kit instructions. Fluorescence was read at Ex/Em = 355/495 nm.
Supplementary Figure 7. Effect of Aβ1-6A2V(D) on the BACE activity. (A) Dose-dependent inhibitory effect of Aβ1-6A2V(D) on BACE activity determined in vitro. (B) BACE activity determined in the brain homogenates of 3xTg-AD TBI mice (N = 3) treated (TBI Aβ1-6A2V(D)) or not (TBI vehicle) with 50 mg/kg b.w. Aβ1-6A2V(D) and sacrificed 24 h after the last administration. Data are mean ± SD, one-way ANOVA, and Bonferroni’s post hoc test.

[1] = MALDI-TOF imaging brain biodistribution after intranasal administration, TBI mice; type: in vivo, mouse (3xTg-AD
Experimental: The Aβ1-6A2V(D) was administered to 3xTg-AD and 24-month-old WT TBI underwent mice by repeated intranasal administration as described in [39]. In brief, mice were acclimatized for 2 weeks before the surgery and the treatment. Aβ1-6A2V(D) was administered to mice at 50 mg/kg body weight (b.w.) (about 5 µL/nostril/mouse, 10 µL total/each treatment session/mouse) starting at 10 min post-TBI and every 48 h up to 6 days post-injury, using a 20 µL pipette and gel loading pipette tip. At each treatment session, the mice were held in place for 30 seconds after the first 5 µL administration and then left free to move in a cage for 30 seconds before administering the remaining treatment/vehicle. Weight was assessed before each intranasal administration. Neurological functions were monitored longitudinally and plasma levels of neurofilament light (NfL) were assessed at sacrifice as detailed in the Supplementary information (sections ‘Behavioural test’ and ‘Plasmatic neurofilament light’). Seven days after surgery, the mice were sacrificed, the brain was removed, and ipsilateral cortical areas were dissected out, immediately frozen on dry ice, and stored at −80 °C until their use for biochemical and C. elegans studies. At 4 h, 24 h, 48 h, and 72 h after surgery, a subset of mice (n = 3) was sacrificed, and their brains were removed, frozen immediately in liquid nitrogen, and stored at −80 °C until matrix-assisted laser desorption/ionization (MALDI)-imaging analysis. The investigators were blinded to treatment allocation during the assessment of the results.
Fig. 3 Biodistribution of Aβ1-6A2V(D) in brain parenchyma of 3xTg-AD injured mice after intranasal administration. A Mice were subjected to TBI, randomly distributed into two groups, and treated intranasally 10 min post-injury with either a single dose of Aβ1-6A2V(D) (50 mg/kg b.w.) or saline (vehicle). MALDI-imaging analyses were performed 4-h, 24-h, 48-h, and 72-h post-administration. B Representative images of Aβ1-6A2V(D) biodistribution assessed by MALDI-TOF and imaged as a heatmap (red > Aβ1-6A2V(D) concentration > deep purple).
Studies were carried out as described by Catania et al. to confirm that the intranasal administration of Aβ1-6A2V(D) to injured mice allows the efficient distribution of the peptide in the brain tissue. Brains from injured 3xTg-AD mice were used to prepare […] sections (14 μm thickness) at -20°C in a cryostat. Fourteen µm coronal sections of fresh-frozen brains were cut and serially collected from bregma +0.8 mm to -2.7 mm at 700 µm intervals for MALDI analysis and Cresyl violet staining to pair Aβ1-6A2V(D) biodistribution to anatomical structures. […]

[2] = ref [16]; cited from earlier work
[3] = system: tau (P301L mouse brain homogenate); experiment: Western blot of total tau level in P301L brain lysate; type: biochemical, human tau with P301L mutation, JNPL3 mice; conditions: 50 µM, 2 h at 25 °C, 30 µg protein/100 µL, PBS pH 7.4, DAKO/actin band; mean ± SD, N = 3, p < 0.05
Text: Male JNPL3 mice expressing 0N4R human tau with the P301L mutation (P301L) were obtained from Taconic Biosciences (New York, USA) (Tau Model 2508). Controls were non-transgenic (Non-tg) male mice with the same mixed C57BL/6, DBA/2, SW genetic background as P301L mice. Triple transgenic mice harboring human PS1(M146 V), APP(SW), and MAPT(P301L) transgenes, referred to as 3xTg-AD, were kindly provided by Dr. Oddo [34]. Male and female C57BL/6 J mice, referred to as wild type (WT), were purchased from Envigo (Italy).
Fig. 2 Effect of Aβ1-6A2V-TAT(D) on the toxicity caused in C. elegans by misfolded tau in P301L and TBI brain homogenates. A Brains from P301L mice were homogenized in 10 mM PBS, pH 7.4, and given to worms alone or in the presence of Aβ1-6A2V-TAT(D). B Worms were administered with brain homogenate (30 µg protein/100 worms/100 µL) in the absence or presence of Aβ1-6A2V-TAT(D) (0-200 µM). […] E Representative western blotting showing the total level of tau and tau quantification expressed as the mean volume of the DAKO band immunoreactivity/actin band. […] The reaction was then stopped, and samples were analyzed by western blot. […]
Lysates from brain homogenates of P301L mice (30 µg protein/100 µL) incubated for 2 h at 25°C with 50 µM Aβ1-6A2V-TAT(D), 50 µM Aβ1-6A2V(D), 50 µM TAT or 10 mM PBS, pH 7.4, were analyzed by immunoblotting using 10% SDS-PAGE gel and Western blotting analysis. […]

Aβ soluble protofibrils = conditions: ref [3]; cited from earlier work
Text: Alzheimer’s disease (AD) is a double proteinopathy characterized by amyloid-β (Aβ) and tau pathology and is the most common dementia in older adults. Despite enormous efforts that have been made in the last few decades to find effective therapy, there are still few weapons available to fight this disease. […] Since the approval of aducanumab, ...

T1 sequence (P56817 46-501, species assumed): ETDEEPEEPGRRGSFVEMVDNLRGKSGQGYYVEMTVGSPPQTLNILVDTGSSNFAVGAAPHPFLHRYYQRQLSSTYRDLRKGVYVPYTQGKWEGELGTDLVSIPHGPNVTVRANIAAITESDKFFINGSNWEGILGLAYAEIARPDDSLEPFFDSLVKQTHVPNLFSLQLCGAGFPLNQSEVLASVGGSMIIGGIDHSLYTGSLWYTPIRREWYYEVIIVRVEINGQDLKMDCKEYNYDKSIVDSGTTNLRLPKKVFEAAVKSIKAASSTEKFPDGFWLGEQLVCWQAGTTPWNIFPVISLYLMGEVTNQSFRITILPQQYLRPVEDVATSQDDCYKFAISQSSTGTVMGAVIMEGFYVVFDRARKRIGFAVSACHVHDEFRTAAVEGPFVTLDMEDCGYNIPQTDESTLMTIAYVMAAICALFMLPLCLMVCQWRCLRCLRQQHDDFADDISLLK

In the case of `CC(C)[C@@H](NC(=O)[C@H](N)CC(=O)O)C(=O)N[C@H](CCC(=O)O)C(=O)N[C@H](Cc1ccccc1)C(=O)N[C@H](CCCNC(=N)N)C(=O)N[C@H](Cc1c[nH]cn1)C(=O)O` [Aβ1-6A2V(D)] (H-[dD][dV][dE][dF][dR][dH]-OH), the “Passage through the worm's membrane” value (C. elegans) is listed as “only in the presence of the TAT sequence, Aβ1-6A2V(D) can pass through the worm’s membrane”, the IC50 (BACE) is listed as 126 nM and the “Peptide level in brain areas close to the contusion site, 24 h” value ([1]; intranasal 50 mg/kg b.w., 24 h after administration) is listed as “high levels of peptide still detectable 24 h after the administration”. The “Presence of peptide in brain regions” value ([1]; single intranasal dose 50 mg/kg b.w. 10 min post-injury, 4-h and 24-h) was “present in the cerebral cortex, hippocampus, caudate-putamen, and cerebellum”, the “Peptide level in brain, 72 h” value ([1]; single intranasal dose 50 mg/kg b.w. 10 min post-injury, 72 h after administration) was “not detectable” and the “Peptide level in ipsi- and contra-lateral hemispheres, up to 48 h” value ([1]; single intranasal dose 50 mg/kg b.w. 10 min post-injury, high levels persisting, although low, up to 48 h) was “high Aβ1-6A2V(D) levels were detected in the ipsi- and contra-lateral hemispheres that persisted, although at low levels, up to 48 h”. For the same molecule, the “Brain distribution after single intranasal administration, AD mouse” value [2] was “distributed in the AD mouse brain”.

With “GRKKRRQRRR [TAT, TAT48-56(D) (…), reference compound]” the “Total tau protein level in P301L brain homogenate” value [3] was “but not TAT alone, significantly reduced the tau protein level”.

B1: Lecanemab: a humanized monoclonal antibody that binds with high affinity to Aβ soluble protofibrils (antibody, chains of the INN, looked up, V domains shown)
VH: EVQLVESGGGLVQPGGSLRLSCSASGFTFSSFGMHWVRQAPGKGLEWVAYISSGSSTIYYGDTVKGRFTISRDNAKNSLFLQMSSLRAEDTAVYYCAREGGYYYGRSYYTMDYWGQGTTVTVSS
VL: DVVMTQSPLSLPVTPGAPASISCRSSQSIVHSNGNTYLEWYLQKPGQSPKLLIYKVSNRFSGVPDRFSGSGSGTDFTLRISRVEAEDVGIYYCFQGSHVPPTFGPGTKLEIK
In the case of B1, the “Binding affinity to Aβ soluble protofibrils” value (Aβ soluble protofibrils) is given as “binds with high affinity to Aβ soluble protofibrils”.
